Source: patent US20260242478A1, “ANTIBODIES FOR TARGETING PSMA AND CD28 AND USES THEREOF” (Janux Therapeutics, Inc., priority 2023, published 2026)

Legend:
[1] = molecular target: anti-CD28 Fab (SEQ ID NOs: 696, 697); experiment: anti-CD28 Fab binding to peptides, ELISA; conditions: anti-CD28 Fab
[2] = test system: PSMA Fab (SEQ ID NOs: 19, 20) binding to the PSMA antigen; experiment: Inhibition of PSMA Fab binding to PSMA by peptides, competition ELISA (incl. alanine scanning); design: key to Mutation Status: tolerant (T); somewhat tolerant (ST); intolerant (IT)
Procedure: PSMA Fab fixed at 0.3 nanomolar (nM) concentration was pre-incubated with 0-100 micromolar (μM) titrated peptides. After a short pre-incubation period, the mixture of titrated peptide with fixed PSMA Fab were added to the PSMA antigen coated plates. After a short incubation on the plates, bound PSMA Fab was detected with a standard horse radish peroxidase conjugated secondary antibody.
The tables also designate each alanine mutation as tolerant (T), somewhat tolerant (ST), or intolerant (IT) based on changes in binding inhibition ability relative to the non-mutated peptide. Cys-5 and Cys-11 of peptide-179 and peptide-180 were not mutated.

[3] = test system: anti-CD28 scFv (SEQ ID NO: 9); experiment: Kinetic binding of anti-CD28 scFv to peptides, bio-layer interferometry (Octet RED96); conditions: 200 nM peptide loaded
Procedure: (§1) Briefly, streptavidin biosensors were loaded with biotinylated peptides and baselined in buffer. […] After a short association period, sensors were transferred into buffer and the dissociation of bound anti-CD28 scFv was measured. The timing and steps of the experiment are shown in the accompanying table. Association and dissociation signals were recorded in real time and analyzed using a 1:1 binding model within the instrument software. Analysis using a 1:1 binding model enabled the calculation of the on and off rate constants as well as affinity, KD.
as §1, with “KD. FIGS. 70A-70F illustrate kinetic binding of anti-CD28 scFv binding to peptides as measured by Octet. FIGS. 70G-70U illustrate kinetic binding of peptides to the anti-CD28 scFv as measured by Octet.” for “KD.”

[4] = Table 40, alanine scanning of Peptide-179, change in binding inhibition relative to non-mutated peptide
[5] = Table 39, PSMA Fab fixed at 0.3 nM, peptide 0-100 μM
[6] = Table 41, alanine scanning of Peptide-180, change in binding inhibition relative to non-mutated peptide
[7] = Table 40, competition binding ELISA, alanine scanning sequences of Peptide-179
[8] = Table 41, competition binding ELISA, alanine scanning sequences of Peptide-180
[9] = Table 34, CD28 scFv titrated 100-12.5 nM
[10] = Table 36, anti-CD28 scFv titrated 100-12.5 nM

Sequence of anti-CD28 Fab (SEQ ID NOs: 696, 697) (as listed by the source): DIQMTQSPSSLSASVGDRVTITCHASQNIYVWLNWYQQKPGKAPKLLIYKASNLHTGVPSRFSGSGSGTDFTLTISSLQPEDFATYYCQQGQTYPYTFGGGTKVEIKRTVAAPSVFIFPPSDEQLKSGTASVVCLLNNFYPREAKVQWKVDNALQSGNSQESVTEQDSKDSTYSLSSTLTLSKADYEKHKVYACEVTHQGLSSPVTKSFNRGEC
Sequence of anti-CD28 Fab (SEQ ID NOs: 696, 697) (as listed by the source): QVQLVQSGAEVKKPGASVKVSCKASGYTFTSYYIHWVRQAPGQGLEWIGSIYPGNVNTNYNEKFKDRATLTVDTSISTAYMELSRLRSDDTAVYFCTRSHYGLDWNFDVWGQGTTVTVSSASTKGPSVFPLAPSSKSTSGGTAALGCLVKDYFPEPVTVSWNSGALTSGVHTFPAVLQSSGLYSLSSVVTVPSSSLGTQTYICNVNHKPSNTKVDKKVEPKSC
Sequence of anti-CD28 scFv (SEQ ID NO: 9) (as listed by the source): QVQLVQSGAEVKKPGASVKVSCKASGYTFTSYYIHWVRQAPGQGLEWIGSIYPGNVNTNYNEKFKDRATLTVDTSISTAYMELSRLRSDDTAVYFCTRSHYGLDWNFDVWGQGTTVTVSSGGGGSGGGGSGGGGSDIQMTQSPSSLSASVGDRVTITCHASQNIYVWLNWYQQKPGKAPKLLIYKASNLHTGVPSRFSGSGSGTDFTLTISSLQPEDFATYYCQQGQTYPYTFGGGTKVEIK
Sequence of PSMA Fab (SEQ ID NOs: 19, 20) binding to the PSMA antigen (as listed by the source): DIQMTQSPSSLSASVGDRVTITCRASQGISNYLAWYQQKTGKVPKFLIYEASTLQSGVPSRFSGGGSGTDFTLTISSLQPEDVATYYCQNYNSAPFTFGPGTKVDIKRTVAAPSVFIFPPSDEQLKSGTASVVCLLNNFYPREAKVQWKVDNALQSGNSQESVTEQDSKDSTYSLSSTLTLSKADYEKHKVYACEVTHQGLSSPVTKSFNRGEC
Sequence of PSMA Fab (SEQ ID NOs: 19, 20) binding to the PSMA antigen (as listed by the source): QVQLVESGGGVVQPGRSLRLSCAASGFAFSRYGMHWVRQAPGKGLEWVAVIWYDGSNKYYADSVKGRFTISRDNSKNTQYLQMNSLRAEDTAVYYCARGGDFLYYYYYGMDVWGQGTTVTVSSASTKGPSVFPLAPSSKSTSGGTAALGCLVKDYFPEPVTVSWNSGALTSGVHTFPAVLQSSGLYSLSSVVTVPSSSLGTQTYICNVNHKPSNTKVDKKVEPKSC
Sequence of PSMA Fab (SEQ ID NOs: 19, 20) binding to the PSMA antigen (Q04609 whole entry partner): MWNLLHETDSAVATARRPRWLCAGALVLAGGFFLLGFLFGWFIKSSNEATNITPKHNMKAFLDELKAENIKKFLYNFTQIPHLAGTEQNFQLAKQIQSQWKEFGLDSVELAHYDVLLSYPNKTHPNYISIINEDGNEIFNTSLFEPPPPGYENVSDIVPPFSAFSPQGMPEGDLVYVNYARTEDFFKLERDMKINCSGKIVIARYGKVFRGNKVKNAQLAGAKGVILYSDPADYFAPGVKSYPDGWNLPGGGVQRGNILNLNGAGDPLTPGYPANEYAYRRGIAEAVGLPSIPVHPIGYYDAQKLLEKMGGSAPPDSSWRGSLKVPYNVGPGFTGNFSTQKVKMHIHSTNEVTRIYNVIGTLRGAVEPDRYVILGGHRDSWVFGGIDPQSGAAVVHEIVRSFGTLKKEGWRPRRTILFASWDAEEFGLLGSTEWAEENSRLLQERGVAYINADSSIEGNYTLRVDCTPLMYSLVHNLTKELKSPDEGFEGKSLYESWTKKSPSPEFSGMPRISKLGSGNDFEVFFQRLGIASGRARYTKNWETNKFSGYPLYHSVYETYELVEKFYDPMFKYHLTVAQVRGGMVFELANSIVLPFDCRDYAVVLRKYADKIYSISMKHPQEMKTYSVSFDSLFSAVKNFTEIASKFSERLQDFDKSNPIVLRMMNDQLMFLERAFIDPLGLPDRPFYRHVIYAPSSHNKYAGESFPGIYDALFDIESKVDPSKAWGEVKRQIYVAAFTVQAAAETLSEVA

YCEGHSPEYILKCL [Peptide-117]
EC50 ([1]; Table 26): 11 nM

LMKACTPRWMCAAE [Peptide-244]
Mutation Status [2, 4]: ST

YCWSHSPPFIKKCY [Peptide-131]
EC50 ([1]; Table 26): > 1000 nM

Peptide-2687 (LMAWCTPRWMCAAE)
Mutation Status [2, 4]: ST

MCFVTGWGVPDDCN [Peptide-208]
IC50 [2, 5]: > 100000 nM

IAVLCQPAWMCAGF [Peptide-256]
Mutation Status [2, 6]: T

TCSAGASYPWPLCL [Peptide-139]
EC50 ([1]; Table 25): 5.3 nM

EPKWCVPRGLCNYD [Peptide-240]
IC50 ([2]; Table 43, SAR guided optimization phage library of peptide-179): > 100000 nM

YCEGHSSEYIQKCL [Peptide-129]
EC50 ([1]; Table 26): 30.5 nM

LMKWCAPRWMCAAE [Peptide-245]
Mutation Status [2, 4]: ST

FVPCIPSHWLCPIW [Peptide-191]
IC50 [2, 5]: > 100000 nM

YCEGHLPEYLEKCV [Peptide-133]
EC50 ([1]; Table 26): 32.5 nM

IAVLCQPNWMCAGA [Peptide-260]
Mutation Status [2, 6]: ST

LCQWYPKFHWMDCD [Peptide-210]
IC50 [2, 5]: > 100000 nM

VEVKCFPLWFCVGL [Peptide-275]
IC50 ([2]; Table 42, SAR guided optimization phage library of peptide-180): > 100000 nM

LCAAGASWPWPVCL [Peptide-138]
EC50 ([1]; Table 25): 13.1 nM

TCAAGATYLWPTCL [Peptide-153]
EC50 ([1]; Table 25): 20.5 nM

YCWVDADMWLIFRC [Peptide-199]
IC50 [2, 5]: > 100000 nM

TCSAGATWAWPLCF [Peptide-152]
EC50 ([1]; Table 25): 15.6 nM

LMKWCTPRWACAAE [Peptide-249]
Mutation Status [2, 4]: IT | IC50 [2, 7]: > 100000 nM

IAVLCQPNAMCAGF [Peptide-257]
Mutation Status [2, 6]: IT | IC50 [2, 8]: > 100000 nM

LMKWCTPRAMCAAE [Peptide-248]
Mutation Status [2, 4]: IT | IC50 [2, 7]: > 100000 nM

SCSAGAAYYWPWCL [Peptide-151]
EC50 ([1]; Table 25): 112 nM

LAKWCTPRWMCAAE [Peptide-242]
Mutation Status [2, 4]: T

YCEGHSQENIWKCL [Peptide-124]
EC50 ([1]; Table 26): 28.1 nM

LMKWCTARWMCAAE [Peptide-246]
Mutation Status [2, 4]: IT | IC50 [2, 7]: > 100000 nM

MEYCSFHRFTCVLW [Peptide-193]
IC50 [2, 5]: > 100000 nM

TCSAGAHYPWPICL [Peptide-150]
EC50 ([1]; Table 25): 10.6 nM

LMKWCTPRWMC [Peptide-250]
Mutation Status [2, 4]: T | IC50 [2, 7]: 6640 nM

AMKWCTPRWMCAAE [Peptide-241]
Mutation Status [2, 4]: T

TCAAGATWSWPACF [Peptide-142]
EC50 ([1]; Table 25): 4.5 nM

LCAAGATYPWPLCL [Peptide-144]
EC50 ([1]; Table 25): 5.6 nM

FWECYSSFCRFVEG [Peptide-196]
IC50 [2, 5]: > 100000 nM

PLCGTEEVWWECRL [Peptide-197]
IC50 [2, 5]: > 100000 nM

LCAAGATYPWPTCL [Peptide-147]
EC50 ([1]; Table 25): 25.8 nM

YCEGHRPEYILKCL [Peptide-118]
EC50 ([1]; Table 26): 65.8 nM

GYCHYWGDMVMWCG [Peptide-12]
kdis [3, 9]: 0.00167 s⁻¹ | kon [3, 9]: 98700 M⁻¹ s⁻¹

MDWCPRHMWNYCFA [Peptide-46]
Kd [3, 10]: 35.2 nM | kdis [3, 10]: 0.00218 s⁻¹ | kon [3, 10]: 61900 M⁻¹ s⁻¹

TCSAGATYTWPKCF [Peptide-141]
EC50 ([1]; Table 25): 15.7 nM

YCEGHAPEYIWKCL [Peptide-123]
EC50 ([1]; Table 26): 8.1 nM

TCSAGAAYSWPACF [Peptide-146]
EC50 ([1]; Table 25): 24.3 nM

SCSAGAHYPWPQCF [Peptide-148]
EC50 ([1]; Table 25): 19 nM

MDWCPRDLWHLCFS [Peptide-39]
Kd [3, 10]: 51.9 nM | kdis [3, 10]: 0.00265 s⁻¹ | kon [3, 10]: 51100 M⁻¹ s⁻¹

MEYCSFHRFTCVLW [Peptide-183]
IC50 ([2]; Table 38, PSMA Fab fixed at 0.3 nM, peptide 0-100 μM): > 100000 nM

HCEFHDYQSCDVLY [Peptide-211]
IC50 [2, 5]: > 100000 nM

MDWCPRDMWSECFA [Peptide-43]
Kd [3, 10]: 192 nM | kdis [3, 10]: 0.0032 s⁻¹ | kon [3, 10]: 16700 M⁻¹ s⁻¹

TCAAGAAWPWPQCL [Peptide-140]
EC50 ([1]; Table 25): 2.6 nM

LMKWCTPAWMCAAE [Peptide-247]
Mutation Status [2, 4]: T

MDWCPIYLWSECFN [Peptide-33]
Kd [3, 10]: 52.8 nM | kdis [3, 10]: 0.00153 s⁻¹ | kon [3, 10]: 29000 M⁻¹ s⁻¹

YCEGHSQEYLWKCL [Peptide-128]
EC50 ([1]; Table 26): 59.4 nM

YCEGHLPEYLGKCL [Peptide-125]
EC50 ([1]; Table 26): 12.1 nM

MDWCPVHLWSVCFA [Peptide-50]
Kd [3, 10]: 48 nM | kdis [3, 10]: 0.00443 s⁻¹ | kon [3, 10]: 92300 M⁻¹ s⁻¹

TCSAGATWPWPICL [Peptide-137]
EC50 ([1]; Table 25): 2.1 nM

YCEGHAPEYIRKCL [Peptide-122]
EC50 ([1]; Table 26): 7.8 nM

TCAAGAHYPWPACL [Peptide-154]
EC50 ([1]; Table 25): 4.2 nM

LCEWWTSHVDAWCA [Peptide-213]
IC50 [2, 5]: > 100000 nM

MDWCPLHMWHECFS [Peptide-35]
Kd [3, 10]: 127 nM | kdis [3, 10]: 0.00497 s⁻¹ | kon [3, 10]: 39000 M⁻¹ s⁻¹

HCSGHHWLQVWKCF [Peptide-130]
EC50 ([1]; Table 26): > 1000 nM

MDWCPRYLWHVCFA [Peptide-48]
Kd [3, 10]: 21.1 nM | kdis [3, 10]: 0.00187 s⁻¹ | kon [3, 10]: 88900 M⁻¹ s⁻¹

IAVLCAPNWMCAGF [Peptide-254]
Mutation Status [2, 6]: T

TCAAGAAWGWPLCF [Peptide-143]
EC50 ([1]; Table 25): 5.6 nM

WCWVQDDRRHVVCG [Peptide-201]
IC50 [2, 5]: > 100000 nM

HCLWHESSGRVLCF [Peptide-192]
IC50 [2, 5]: > 100000 nM

TCSAGAAYPWPLCL [Peptide-145]
EC50 ([1]; Table 25): 4.4 nM

AAVLCQPNWMCAGF [Peptide-251]
Mutation Status [2, 6]: T

MDWCPRDMWDECFA [Peptide-42]
Kd [3, 10]: 152 nM | kdis [3, 10]: 0.00433 s⁻¹ | kon [3, 10]: 28400 M⁻¹ s⁻¹

IAALCQPNWMCAGF [Peptide-252]
Mutation Status [2, 6]: T

YCEGHEGIYFWKCL [Peptide-119]
EC50 ([1]; Table 26): 128 nM

IAVLCQPNWACAGF [Peptide-258]
Mutation Status [2, 6]: IT | IC50 [2, 8]: > 100000 nM

IAVLCQPNWMCAAF [Peptide-259]
Mutation Status [2, 6]: ST

IAVLCQANWMCAGF [Peptide-255]
Mutation Status [2, 6]: IT | IC50 [2, 8]: > 100000 nM

MNWCPKDIWYLCFN [Peptide-34]
Kd [3, 10]: 88.8 nM | kdis [3, 10]: 0.00684 s⁻¹ | kon [3, 10]: 77000 M⁻¹ s⁻¹

MDWCPRFMWDECFN [Peptide-45]
Kd [3, 10]: 134 nM | kdis [3, 10]: 0.00364 s⁻¹ | kon [3, 10]: 27100 M⁻¹ s⁻¹

YCEGHAPEYIGKCL [Peptide-136]
EC50 ([1]; Table 26): 44.9 nM

TCSAGATYEWPRCL [Peptide-149]
EC50 ([1]; Table 25): 12.8 nM
